# Results taken from paper PMC10545747, “Development of cyclopeptide inhibitors of cGAS targeting protein-DNA interaction and phase separation” (Nature Communications, 2023).
# Where “and” joins values, the source holds several entries; their conditions need not be identical. Equal values may be shown once. Entries after “also recorded” stand apart in the source; their conditions may differ. Read-outs that look alike come from different tables or passages of the source. Square brackets hold non-standard residues; d marks the D form. Peptide text beside a SMILES is read from it.
# What was measured:
# physchem = experiment: physchem
# Experimental: Supplementary Fig. 7. […] (a) THP1 cells were exposed to the indicated doses of XQ2 or XQ2B for 48h. The cell viability was measured by CCK8 assay. (b) The comparison of solubility of XQ2 and XQ2B. The maximum concentration of XQ2 or XQ2B dissolved in water was measured by a spectrophotometer at 280nm. […]
# Data are representative of three independent experiments with similar results in (e), or three independent experiments in (a -d, f, g) . (Data are presented as mean ± SD, n = 3 independent samples in (a-d, f, g), ns, not significant, **p < 0.01, ***p < 0.001, ****p < 0.0001 using one-way ANOV A with Dunnett’s post hoc test). Source data are provided as a Source Data file.
# Jurkat cells = test system: Jurkat cells
# Experimental: Cell viability was measured by cell counting kit-8 (TargetMol) according to the manufacturer’s instructions.
# (§1) Supplementary Fig. 3. […] (a) L929 cells were pretreated for
# (§2) 4 h with DMSO or the indicated doses of XQ2, followed by stimulation with dsDNA for 4 h, and then cell lysates were
# (§3) (b) Jurkat cells were exposed to the indicated doses of XQ2, and then stimulated with
# (§4) Data are representative of three independent experiments in (a, b). (Data are presented as mean ± SD, n = 3 independent
# (§5) provided as a Source Data file.
# (§6) (1 picture or pasted object on this page, not shown here)
# HSV-1 in THP1 cells = experiment: HSV-1(UL5) mRNA by qPCR (virus infection of cells); type: cell-based, herpes simplex virus-1; set-up: key to HSV-1(UL5) mRNA, qPCR, Fig. 5d / HSV-1(UL5) mRNA (Fig. S8e): relative mRNA level, target CT normalized to GAPDH CT; settings: for HSV-1(UL5) mRNA, qPCR, Fig. 5d: XQ2 10 μM
# Experimental: (§7) The indicated cells were stimulated with either ISD (Sangon Biotech), HSV-1 (Provided by Dr. Zhengfan Jiang), HSV60mer (Sangon Biotech), SATE-cddA[70], 2’3’-cGAMP (Invivogen, Cat# tlrl-nacga23-1), ADU-S100 (MedChemExpress, Cat# HY-12885A) or Poly(I:C) (Invivogen, Cat# tlrl-pic) after XQ2 or XQ2B treatment. Total RNA was isolated from indicated cells that incubated with the drugs for indicated time or mice tissues by using NucleoZOL reagent (MACHEREY-NAGEL) according to the manufacturer’s instructions. The quantifications of mRNA levels were carried out by real-time PCR using a PerfectStart® Uni RT&qPCR Kit (TransGen Biotech) on the QuantStudio 5 qPCR machine (Applied Biosystems). Samples were carried out in triplicate and the target CT values were normalized to GAPDH CT values. Primers of qPCR used in this study can be found in Supplementary Table S2.
# [1] = test system: dsDNA-stimulated THP1 cells; experiment: qPCR of IFNB1/CXCL10/IL6 mRNA in THP1 cells stimulated by dsDNA (ISD, HSV60mer); type: cell-based, human; settings: for IFNB1 mRNA, qPCR, Fig. 2b: 10 μM
# Excerpt: To screen direct cGAS inhibitors targeting protein-DNA interface from our developed focused library of macrocyclic peptides, we applied an RNA-based fluorescent biosensor for 2’,3’-cGAMP to detect cGAS activity in vitro (Supplementary Fig. 1a)[49]. The formation of 2’,3’-cGAMP from ATP and GTP was catalyzed by recombinant human cGAS enzyme (hcGAS-ΔN, residues 147–522, Supplementary Fig. 1b) in the presence of ISD (interferon stimulatory DNA, a 45-bp dsDNA), which was readily quantified by the RNA-based fluorescent biosensor and was further confirmed by ion exchange chromatography (Supplementary Fig. 1c). […] Subsequently, a total of 90 macrocyclic peptides were screened at a concentration of 20 μM (Fig. 1a and Supplementary Fig. 1e), and 4 hits (XQ2, XQ8, XQ19, and XQ46) were obtained for further testing at a cut-off of 40% inhibition (Supplementary Table 1). To evaluate the inhibitory effect of the hits against cGAS in cells, we employed real-time quantitative PCR (qPCR) to examine mRNA levels of IFNΒ1 in THP1 cells. The reported cGAS inhibitor RU.521 was used as the positive control, and the non-active peptide XQ28 in the screening assay was used as the negative control. […] The inhibition of cGAS by these hits was further confirmed in the reporter cell line THP1-Lucia ISG (Invivogen) that expresses secreted luciferase induced by an IRF3-inducible ISG54 promoter (Fig. 1c). The discrepancy between the inhibitory effect of the hits in protein and cellular assays may be attributed to their different cellular permeability.
# as §7
# L929 cells = experiment: ISD-induced autophagy, LC3-II immunoblotting; type: cell-based, mouse; settings: for LC3-II relative gray ratio (normalized to GAPDH), Fig. S3a: ISD +
# Experimental: Total cell lysates were prepared in RIPA lysis buffer (Beyotime Biotechnology) supplemented with 1 mM PMSF and 1× protease inhibitor cocktail (Yeasen), and nuclear protein was extracted by nuclear protein extraction kit (Solarbio) in accordance with the manufacturer’s instructions. The samples were separated by SDS-PAGE and transferred to the PVDF membrane (Millipore). The membranes were incubated with the indicated primary antibodies at 4 °C overnight and then incubated with an HRP-conjugated anti-rabbit IgG antibody (Cell Signaling, Cat# 7074, 1:5000) or anti-mouse IgG antibody (Cell Signaling, Cat# 7076, 1:5000) at room temperature for 1 h. The signal was visualized by using the NcmECL Ultra kit (New Cell & Molecular Biotech) and then was exposed by using MiniChemi (SageCreation).
# as §1, §2, §3, §4, §5, §6
# primary human PBMCs = experiment: qPCR of IFNB1 and IL6 mRNA in ISD-stimulated PBMCs; type: cell-based; set-up: key to IFNB1 mRNA, qPCR, Fig. 2c / IL6 mRNA, qPCR, Fig. 2c / IFNB1 mRNA (Fig. S7f) / IL6 mRNA (Fig. S7f): relative mRNA level, target CT normalized to GAPDH CT; settings: 10 μM
# Experimental: as §7
structure (smiles),measurement,setting,value
"CC(C)C[C@@H]1NC(=O)[C@H](CCCNC(=N)N)NC(=O)[C@H](C(C)C)NC(=O)[C@@H]2CCCN2C(=O)[C@@H](Cc2ccccc2)NC(=O)[C@H](CC(C)C)NC(=O)[C@H](CCCNC(=N)N)NC(=O)[C@H](C(C)C)NC(=O)[C@H](C)NC(=O)[C@@H](Cc2ccccc2)NC1=O [XQ2, Cyclo (LfAVRLfPVR)] (cyclo(L[dF]AVRL[dF]PVR))",solubility,physchem,low solubility at higher concentrations
same,solubility,"physchem; Concentration (solubility, Fig. S7b)",860 µg/mL
same,ISD-induced cell death,Jurkat cells,markedly suppressed ISD-induced cell death
same,"HSV-1 infection of THP1 cells, HSV1(UL5) mRNA",HSV-1 in THP1 cells; 10 μM,substantially facilitated HSV-1 infection of THP1 cells
same,"HSV-1(UL5) mRNA, qPCR, Fig. 5d",HSV-1 in THP1 cells; HSV-1(1×104)24h,1.256 and 1.311 and 1.284
same,"HSV-1(UL5) mRNA, qPCR, Fig. 5d",HSV-1 in THP1 cells; HSV-1(1×104)48h,9.927 and 7.927 and 10.0304
same,"HSV-1(UL5) mRNA, qPCR, Fig. 5d",HSV-1 in THP1 cells; HSV-1(2×104)24h,4.976 and 4.739 and 4.656
same,"HSV-1(UL5) mRNA, qPCR, Fig. 5d",HSV-1 in THP1 cells; HSV-1(2×104)48h,18.9511 and 21.7278 and 21.8028
same,CXCL10 mRNA (Fig. S2a),"[1]; ISD, XQ2 0.31 μM",608.071 and 547.477 and 553.882
same,IFNB1 mRNA (Fig. S2a),"[1]; ISD, XQ2 0.31 μM",85.2902 and 89.4127 and 103.445
same,IL6 mRNA (Fig. S2a),"[1]; ISD, XQ2 0.31 μM",53.8661 and 62.1977 and 48.2598
same,CXCL10 mRNA (Fig. S2a),"[1]; ISD, XQ2 0.63 μM",550.9 and 499.514 and 482.522
same,IFNB1 mRNA (Fig. S2a),"[1]; ISD, XQ2 0.63 μM",75.3551 and 77.8155 and 85.6546
same,IL6 mRNA (Fig. S2a),"[1]; ISD, XQ2 0.63 μM",45.9203 and 56.9516 and 44.1827
same,CXCL10 mRNA (Fig. S2a),"[1]; ISD, XQ2 1.25 μM",440.727 and 424.983 and 441.062
same,IFNB1 mRNA (Fig. S2a),"[1]; ISD, XQ2 1.25 μM",54.4915 and 50.1897 and 58.943
same,IL6 mRNA (Fig. S2a),"[1]; ISD, XQ2 1.25 μM",59.6412 and 54.8577 and 42.9996
same,CXCL10 mRNA (Fig. S2a),"[1]; ISD, XQ2 2.5 μM",320.996 and 337.289 and 307.846
same,IFNB1 mRNA (Fig. S2a),"[1]; ISD, XQ2 2.5 μM",46.4673 and 40.8489 and 46.9306
same,IL6 mRNA (Fig. S2a),"[1]; ISD, XQ2 2.5 μM",51.498 and 49.1657 and 30.2376
same,CXCL10 mRNA (Fig. S2a),"[1]; ISD, XQ2 5 μM",341.101 and 357.811 and 355.382
same,IFNB1 mRNA (Fig. S2a),"[1]; ISD, XQ2 5 μM",26.7077 and 29.7394 and 30.8514
same,IL6 mRNA (Fig. S2a),"[1]; ISD, XQ2 5 μM",24.0755 and 29.7141 and 20.0828
same,CXCL10 mRNA (Fig. S2a),"[1]; ISD, XQ2 10 μM",329.162 and 346.227 and 299.128
same,IFNB1 mRNA (Fig. S2a),"[1]; ISD, XQ2 10 μM",10.6974 and 11.3948 and 12.0973
same,IL6 mRNA (Fig. S2a),"[1]; ISD, XQ2 10 μM",18.3875 and 16.237 and 20.2076
same,CXCL10 mRNA (Fig. S2a),"[1]; Mock, XQ2 0.31 μM",0.6255 and 0.7855 and 0.8542
same,IFNB1 mRNA (Fig. S2a),"[1]; Mock, XQ2 0.31 μM",0.7527 and 0.6452 and 0.8722
same,IL6 mRNA (Fig. S2a),"[1]; Mock, XQ2 0.31 μM",0.9875 and 1.125 and 1.458
same,CXCL10 mRNA (Fig. S2a),"[1]; Mock, XQ2 0.63 μM",0.4588 and 0.432 and 0.4044
same,IFNB1 mRNA (Fig. S2a),"[1]; Mock, XQ2 0.63 μM",0.713 and 0.5919 and 0.8053
same,IL6 mRNA (Fig. S2a),"[1]; Mock, XQ2 0.63 μM",1.48 and 1.078 and 1.222
same,CXCL10 mRNA (Fig. S2a),"[1]; Mock, XQ2 1.25 μM",1.308 and 1.359 and 1.615
same,IFNB1 mRNA (Fig. S2a),"[1]; Mock, XQ2 1.25 μM",0.9026 and 1.107 and 1.382
same,CXCL10 mRNA (Fig. S2a),"[1]; Mock, XQ2 2.5 μM",3.137 and 2.991 and 2.833
same,IFNB1 mRNA (Fig. S2a),"[1]; Mock, XQ2 2.5 μM",1.426 and 1.751 and 1.799
same,IL6 mRNA (Fig. S2a),"[1]; Mock, XQ2 2.5 μM",2.387 and 2.459 and 3.439
same,CXCL10 mRNA (Fig. S2a),"[1]; Mock, XQ2 5 μM",1.923 and 2.134 and 2.246
same,IFNB1 mRNA (Fig. S2a),"[1]; Mock, XQ2 5 μM",1.17 and 1.093 and 1.0788
same,CXCL10 mRNA (Fig. S2a),"[1]; Mock, XQ2 10 μM",4.593 and 4.941 and 4.3739
same,IFNB1 mRNA (Fig. S2a),"[1]; Mock, XQ2 10 μM",1.523 and 2.285 and 2.284
same,IL6 mRNA (Fig. S2a),"[1]; Mock, XQ2 10 μM",4.656 and 4.111 and 3.925
same,"dsDNA/ISD-induced IFNB1, CXCL10, IL6 expression",[1]; THP1,"inhibited the expression level of IFNΒ1 and CXCL10, as well as IL6; also recorded: best potency in the cellular assays"
same,"IFNB1 mRNA, qPCR, Fig. 2b","[1]; THP1, ISD",72.2364 and 85.3888 and 75.3743
same,"IFNB1 mRNA, qPCR, Fig. 2b","[1]; THP1, Mock (no stimulus)",1.523 and 2.285 and 2.284
same,"IFNB1 mRNA, qPCR, Fig. 1b","[1]; THP1, dsDNA 6 h, hits 10 μM, replicate values",24.5085 and 22.546 and 27.0371
same,cellular efficacy against cGAS,"[1]; as stated in the rebuttal letter, cellular assays",< 10 µM
same,"ISD-induced autophagy, LC3-II formation",L929 cells,significantly reduced ISD-induced autophagy
same,"LC3-II relative gray ratio (normalized to GAPDH), Fig. S3a",L929 cells; XQ2 5 μM,1.62 and 1.737 and 1.498
same,"LC3-II relative gray ratio (normalized to GAPDH), Fig. S3a",L929 cells; XQ2 10 μM,1.275 and 1.336 and 1.295
same,ISD-induced IFNB1 and IL6 expression in PBMCs,primary human PBMCs,markedly suppressed the expression of IFNB1 and IL6; also recorded: significantly inhibit the activation of cGAS induced by ISD
same,"IFNB1 mRNA, qPCR, Fig. 2c","primary human PBMCs; PBMCs, ISD",362.804 and 380.938 and 448.513
same,"IL6 mRNA, qPCR, Fig. 2c","primary human PBMCs; PBMCs, ISD",261.548 and 423.427 and 399.836
